Reference: patent US9345742B2, “Aminostatin derivatives for the treatment of arthrosis” (MERCK PATENT GMBH, priority 2011, dated 2016)
Numbered stars: 1 amine (or outer) side, 2 acyl side, 3 side chain; on linkers, the order of the positions; unused ones are H or OH. Square brackets hold non-standard residues; d marks the D form. Peptide text beside a SMILES is read from it. * marks the point of attachment. X1 = N[C@@H](CC(=O)[*:2])[C@H](Cc1ccccc1)N[*:1]; Tle = CC(C)(C)[C@H](N)C(=O)O; Isovaleryl = CC(C)CC(=O)*; Abu = CC[C@H](N)C(=O)O; Ac3c = NC1(C(=O)O)CC1

How the values were obtained:
[1] = biological target: cathepsin D isolated from the human liver (Homo sapiens (Human), UniProt P07339); experiment: In-vitro fluorescence assay for identification of cathepsin D inhibitors; type: biochemical; conditions: cathepsin D 1.4 nM, pH 5.5; read-out: CatD assay IC50-
Description: In order to identify modulators of cathepsin D activity, a continuous enzymatic test was carried out with a synthetic peptide which carries a fluorescent group (MCA=(7-methoxycoumarin-4-yl)acetyl) which is quenched by energy transfer from a Dpn (2,4 dinitrophenyl) group on the same molecule, in Greiner 384-well nb microtitre plates. Cleavage of the peptidic substrate by cathepsin D causes an increase in the fluorescence intensity. In order to determine the efficacy of substances, the time-dependent increase in the fluorescence intensity in the presence of the substance was compared with the time-dependent increase in fluorescence in the absence of substances. The reference substance used was pepstatin A (Sigma-Aldrich). The substrate used was […](Dnp)d-R—NH2 (Enzo Life Sciences, Lörrach). The enzyme employed was cathepsin D isolated from the human liver (Sigma-Aldrich) in a final concentration of 1.4 nM. The test was carried out in 100 mM sodium acetate buffer, 1.25% (v/v) of DMSO, 0.25% (w/v) of Chaps, pH 5.5. 2 μl of each substance solution with serially diluted substance concentration were added to in each case 4 μl of cathepsin D solution and incubated at room temperature for 10 min. The reaction was started by addition of 2 μl of substrate solution (final concentration 5 μM). After carrying out a starting-point fluorescence measurement (excitation wavelength 340 nm/emission wavelength 450 nm) using an Envision multilabel reader (Perkin Elmer), the reaction was incubated at room temperature for 60 min. The amount of peptide fragment cleaved off during the reaction time was subsequently measured by determination of the increase in the fluorescence intensity at 450 nm (excitation wavelength 340 nm).

recombinant human renin = recombinant human renin (Homo sapiens (Human), UniProt P00797); experiment: In-vitro fluorescence assay for identification of renin-inhibitory activity; type: biochemical; conditions: recombinant human renin 10 nM, pH 7.2; read-out: Renin selectivity IC50
Description: In order to identify modulators of renin activity, a continuous enzymatic test was carried out with a synthetic peptide which carries a fluorescent group Edans (=(5-(aminoethyl)aminonaphthalenesulfonate) which is quenched by energy transfer from a Dabcyl (4′-dimethylaminoazobenzene-4-carboxylate) group on the same molecule, in Greiner 384-well microtitre plates. Cleavage of the peptidic substrate by renin causes an increase in the fluorescence intensity. In order to determine the efficacy of substances, the time-dependent increase in the fluorescence intensity in the presence of the substance was compared with the time-dependent increase in fluorescence in the absence of substances. The reference substance used was renin inhibitor 2 (Z-Arg-Arg-Pro-Phe-His-Sta-Ile-His N-Boc-Lys methyl ester Z) (Sigma-Aldrich). The substrate used was renin FRET substrate I (DABCYL-g-Abu-[…]EDANS) (Anaspec, Fremont Calif.). The enzyme employed was recombinant human renin (Proteos, Kalamazoo, Mich.) in a final concentration of 10 nM. The test was carried out in 50 mM Mops buffer, 1.5% (v/v) of DMSO, 0.1% (w/v) of Igepal®, pH 7.2, 0.5% (w/v) of BSA. 2 μl of each substance solution with serially diluted substance concentration were added to in each case 4 μl of renin solution and incubated at room temperature for 15 min. The reaction was started by addition of 4 μl of substrate solution (final concentration 5 μM). After carrying out a starting-point fluorescence measurement (excitation wavelength 340 nm/emission wavelength 495 nm) using an Envision multilabel reader (Perkin Elmer), the reaction was incubated at 37° C. for 60 min. The amount of peptide fragment cleaved off during the reaction time was subsequently measured by determination of the increase in the fluorescence intensity at 495 nm (excitation wavelength 340 nm).

Chain of recombinant human renin (P00797 67-406): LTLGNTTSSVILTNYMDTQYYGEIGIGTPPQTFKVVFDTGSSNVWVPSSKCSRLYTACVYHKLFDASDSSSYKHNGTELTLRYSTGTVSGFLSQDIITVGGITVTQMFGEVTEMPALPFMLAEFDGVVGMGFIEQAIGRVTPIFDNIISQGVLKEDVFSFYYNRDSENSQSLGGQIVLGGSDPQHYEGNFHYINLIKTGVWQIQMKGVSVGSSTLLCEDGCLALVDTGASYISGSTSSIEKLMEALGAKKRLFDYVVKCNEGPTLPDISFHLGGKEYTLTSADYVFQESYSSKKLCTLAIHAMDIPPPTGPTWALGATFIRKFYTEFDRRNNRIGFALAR
Chain of cathepsin D isolated from the human liver (P07339 65-161): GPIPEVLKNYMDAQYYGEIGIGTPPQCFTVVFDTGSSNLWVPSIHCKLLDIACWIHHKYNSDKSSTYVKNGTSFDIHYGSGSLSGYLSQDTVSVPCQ
Chain of cathepsin D isolated from the human liver (P07339 169-412): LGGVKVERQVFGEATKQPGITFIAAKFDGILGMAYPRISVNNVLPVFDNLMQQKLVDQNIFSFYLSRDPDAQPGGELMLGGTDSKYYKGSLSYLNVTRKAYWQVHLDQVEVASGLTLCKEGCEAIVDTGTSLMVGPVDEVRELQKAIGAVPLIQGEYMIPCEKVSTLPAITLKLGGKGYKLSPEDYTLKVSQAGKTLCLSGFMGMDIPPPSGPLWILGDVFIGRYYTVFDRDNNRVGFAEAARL

IC50 [1] [nM] | IC50 (recombinant human renin) [nM] | SMILES
2000 | > 30000 | CC[C@H](NC(=O)[C@@H](N)CC(C)C)C(=O)N[C@@H](Cc1ccccc1)[C@@H](N)CC(=O)N[C@H](C(=O)N[C@H](C(=O)OC)C(C)C)[C@@H](C)CC [Compound 2, Methyl (S)-2-((2S,3S)-2-{(3S,4S)-3-amino-4-[(S)-2-((S)-2-amino-4-methylpentanoylamino)butyrylamino]-5-phenylpentanoylamino}-3-methylpentanoylamino)-3-methyl-butyrate] (H-L[Abu][X1]IV-OMe)
230 | > 30000 | CCc1cccc(CC)c1NC(=O)C[C@H](N)[C@H](Cc1ccccc1)NC(=O)[C@@H](NC(=O)[C@H](CC(C)C)NC(=O)CC(C)C)C(C)C [Compound 38, N-(2,6-Diethylphenyl)-(3S,4S)-3-amino-4-{(S)-3-methyl-2-[(S)-4-methyl-2-(3-methyl-butyrylamino)pentanoylamino]butyryl-amino}-5-phenylpentanamide]
120 | > 30000 | CC[C@H](C)[C@H](NC(=O)C[C@H](N)[C@H](Cc1ccccc1)NC(=O)[C@@H](NC(=O)[C@H](CC(C)C)NC(=O)CC(C)C)C(C)(C)C)C(=O)N[C@H](C(=O)OC)C(C)C [Compound 31, Methyl (S)-2-[(2S,3S)-2-((3S,4S)-3-amino-4-{(S)-3,3-dimethyl-2-[(S)-4-methyl-2-(3-methylbutyrylamino)pentanoylamino]-butyrylamino}-5-phenylpentanoylamino)-3-methylpentanoylamino]-3-methylbutyrate] (Isovaleryl-L[Tle][X1]IV-OMe)
190 | > 30000 | CC(C)CCNC(=O)[C@H](C)NC(=O)C[C@H](N)[C@H](Cc1ccccc1)NC(=O)[C@@H](NC(=O)Cc1cccc(OC(F)(F)F)c1)C(C)C [Compound 35, N-[(S)-1-(3-Methylbutylcarbamoyl)-ethyl]-(3S,4S)-3-amino-4-{(S)-3-methyl-2-[2-(3-trifluoromethoxyphenyl)acetylamino]-butyrylamino}-5-phenylpentanamide]
39 | > 30000 | CC(C)CC(=O)N[C@@H](CC(C)C)C(=O)N[C@H](C(=O)N[C@@H](Cc1ccccc1)[C@@H](N)CC(=O)N[C@H](COc1ccc(F)cc1F)C(C)C)C(C)C [Compound 44, N-[(S)-1-(2,4-Difluorophenoxymethyl)-2-methylpropyl]-(3S,4S)-3-amino-4-{(S)-3-methyl-2-[(S)-4-methyl-2-(3-methylbutyryl-amino)pentanoylamino]butyrylamino}-5-phenylpentanamide]
5.7 | > 30000 | COC(=O)[C@@H](NC(=O)[C@H](Cc1ccccc1)NC(=O)C[C@H](N)[C@H](Cc1ccccc1)NC(=O)[C@@H](NC(=O)[C@H](CC(C)C)NC(=O)CC(C)C)C(C)C)C(C)C [Compound 15, Methyl (S)-2-[(S)-2-((3S,4S)-3-amino-4-{(S)-3-methyl-2-[(S)-4-methyl-2-(3-methyl-butyrylamino)pentanoylamino]butyryl-amino)-5-phenylpentanoylamino)-3-phenyl-propionylamino]-3-methylbutyrate] (Isovaleryl-LV[X1]FV-OMe)
200 | > 30000 | CC[C@H](C)[C@H](NC(=O)C[C@H](N)[C@H](Cc1ccccc1)NC(=O)[C@@H](NC(=O)COc1cccc2ccccc12)C(C)C)C(=O)N[C@H](C(=O)OC)C(C)C [Compound 8, Methyl (S)-2-[(2S,3S)-2-((3S,4S)-3-amino-4-{(S)-3-methyl-2-[2-(naphthalen-1-yloxy)-acetylamino]butyrylamino}-5-phenyl-pentanoylamino)-3-methylpentanoyl-amino]-3-methylbutyrate]
12 | > 30000 | CC[C@H](C)[C@H](NC(=O)C[C@H](N)[C@H](Cc1ccccc1)NC(=O)[C@@H](NC(=O)Cc1cccc(OC(F)(F)F)c1)C(C)C)C(=O)N[C@H](C(=O)O)C(C)C [Compound 32, (S)-2-[(2S,3S)-2-((3S,4S)-3-Amino-4-{(S)-3-methyl-2-[2-(3-trifluoromethoxyphenyl)-acetylamino]butyrylamino}-5-phenyl-pentanoylamino)-3-methylpentanoyl-amino]-3-methylbutyric acid]
18 | > 30000 | CC[C@H](C)[C@H](NC(=O)C[C@H](N)[C@H](Cc1ccccc1)NC(=O)[C@@H](NC(=O)Cc1cccc(OC(F)(F)F)c1)C(C)C)C(=O)N[C@H](C(=O)OC)C(C)C [Compound 7, Methyl (S)-2-[(2S,3S)-2-((3S,4S)-3-amino-4-{(S)-3-methyl-2-[2-(3-trifluoromethoxy-phenyl)acetylamino]butyrylamino}-5-phenylpentanoylamino)-3-methyl-pentanoylamino]-3-methylbutyrate]
400 | > 30000 | CC[C@H](C)[C@H](NC(=O)C[C@H](N)[C@H](Cc1ccccc1)NC(=O)[C@@H](NC(=O)[C@H](CC(C)C)NC(=O)CC(C)C)C(C)C)C(=O)NCC1CC1 [Compound 30, N-[(1S,2S)-1-(Cyclopropylmethyl-carbamoyl)-2-methylbutyl]-(S)-3-(S)-amino-4-{(S)-3-methyl-2-[(S)-4-methyl-2-(3-methylbutyrylamino)-pentanoylamino]butyrylamino}-5-phenylpentanamide]
240 | > 30000 | CC(C)CC(=O)N[C@@H](CC(C)C)C(=O)N[C@H](C(=O)N[C@@H](Cc1ccccc1)[C@@H](N)CC(=O)N[C@H](COc1cccnc1)C(C)C)C(C)C [Compound 43, N-[(S)-2-Methyl-1-(pyridin-3-yloxymethyl)propyl]-(3S,4S)-3-amino-4-{(S)-3-methyl-2-[(S)-4-methyl-2-(3-methylbutyrylamino)-pentanoylamino]butyrylamino}-5-phenylpentanamide]
610 | > 30000 | CC[C@H](C)[C@H](NC(=O)C[C@H](N)[C@H](Cc1ccccc1)NC(=O)[C@H](Cc1ccccc1)NC(=O)[C@H](CC(C)C)NC(=O)CC(C)C)C(=O)N[C@H](C(=O)OC)C(C)C [Compound 11, Methyl (S)-2-[(2S,3S)-2-((3S,4S)-3-amino-4-{(S)-2-[(S)-4-methyl-2-(3-methylbutyrylamino)pentanoylamino]-3-phenyl-propionylamino}-5-phenylpentanoylamino)-3-methylpentanoylamino]-3-methyl-butyrate] (Isovaleryl-LF[X1]IV-OMe)
160 | > 30000 | CC[C@H](C)[C@H](NC(=O)C[C@H](N)[C@H](Cc1ccccc1)NC(=O)[C@@H](NC(=O)[C@H](CC(C)C)NC(=O)CC(C)C)C(C)C)C(=O)N[C@@H](CC(C)C)C(=O)OC [Compound 14, Methyl (S)-2-[(2S,3S)-2-((S)-3-(S)-amino-4-{(S)-3-methyl-2-[(S)-4-methyl-2-(3-methyl-butyrylamino)pentanoylamino]butyryl-amino}-5-phenylpentanoylamino)-3-methylpentanoylamino]-4-methylpentanoate] (Isovaleryl-LV[X1]IL-OMe)
110 | > 30000 | CCOC(=O)C1(NC(=O)[C@@H](NC(=O)C[C@H](N)[C@H](Cc2ccccc2)NC(=O)[C@@H](NC(=O)[C@H](CC(C)C)NC(=O)CC(C)C)C(C)C)[C@@H](C)CC)CC1 [Compound 12, Ethyl 1-[(2S,3S)-2-((S)-3-(S)-amino-4-((S)-3-methyl-2-[(S)-4-methyl-2-(3-methyl-butyrylamino)pentanoylamino]butyryl-amino}-5-phenylpentanoylamino)-3-methyl-pentanoylamino] cyclopropanecarboxylate] (Isovaleryl-LV[X1]I[Ac3c]-OEt)
800 | > 30000 | CCc1cccc(CC)c1NC(=O)C[C@H](N)[C@H](Cc1ccccc1)NC(=O)[C@@H](NC(=O)CCCc1ccccc1)C(C)C [Compound 40, N-(2,6-Diethylphenyl)-(3S,4S)-3-amino-4-[(S)-3-methyl-2-(4-phenylbutyrylamino)butyrylamino]-5-phenylpentanamide]
